Experimental data as given in PubChem BioAssay AID1259411 (Chemical Carcinogenesis Research Information System (CCRIS), 2018).
Active and inactive are the calls of the source. How the calls were made is not given here.

System: rodent carcinogenicity bioassays, tumor incidence
Assay: CCRIS carcinogenicity studies
Outline: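 Archive of carcinogenicity, mutagenicity, tumor promotion and tumor inhibition results drawn from journals, NCI reports and other sources, expert-reviewed; covers 1985-2011 and is no longer updated.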

Compound | carcinogen call (Species: RAT, Strain/Sex: F344/FEMALE, Route: INHALATION, Dose: 0, 500 UG/M3 20 HR/D 5 D/WK FOR 2 YR (STUDY DURATION: 2 YR)) | carcinogen call (Species: DOG, Route: ORAL, Tumor Site: Type of Lesion: LIVER, GALL BLADDER, URINARY BLADDER, Tumor Site: Type of Lesion: LIVER, GALL BLADDER, URINARY BLADDER) | carcinogen call (Species: HAMSTER, Route: ORAL, Tumor Site: Type of Lesion: LIVER, URINARY BLADDER) | carcinogen call (Species: MOUSE, Route: INTRAPERITONEAL, ORAL, SUBCUTANEOUS, DERMAL, Tumor Site: Type of Lesion: LIVER) | carcinogen call (Species: MOUSE, Route: ORAL, SUBCUTANEOUS, Tumor Site: Type of Lesion: LUNG) | carcinogen call (Species: RAT, Route: ORAL, SUBCUTANEOUS, Tumor Site: Type of Lesion: LIVER)
CN1CCC[C@H]1c1cccnc1 | inactive; negative | – | – | – | – | –
Cc1cc(N=Nc2ccccc2C)ccc1N | – | active; positive | active; positive | active; positive | active; positive | active; positive
